# From patent US8772237B2, “Compositions and methods for counteracting effects of reactive oxygen species and free radicals” (Ischemix, Inc., priority 1999, dated 2014)
# Ends that are not written are not given here. * marks the point of attachment. Palmitoyl = CCCCCCCCCCCCCCCC(=O)*; Gga = not defined here
# Experiments:
# catalase (CAT) protein = test: Western immunoblot of CAT protein in rat primary cortical cultures; format: cell-based; details: for CAT: 5 hours at 37° C.
# Method: (§1) Tissue culture experiments were carried out using primary cultures of rat brain cortical cells as previously described above in Example 2. Primary cultures from embryonic rat brain isolated at E-21 (21 day embryos) and incubated for five hours with various doses: 1, 10, 100 ng/ml of CMX-99672. Cytoplasmic proteins were isolated and analyzed for upregulation of SOD and CAT by Western immunoblots as described above. […] The Western blot was scanned to quantify the fold-increase in SOD production in cell cultures treated with the CMX-99672 peptide compound.
# Representative peptide compounds were tested at various doses and compared for their ability to upregulate expression of genes for SOD and/or CAT in rat primary cortical cultures basically as described above. Cultures were incubated with a peptide compound for 5 hours at 37° C. Cytoplasmic protein fractions were prepared as described above. Cytoplasmic proteins were separated by gel electrophoresis and analyzed by Western immunoblots using antisera to SOD and CAT, respectively (Rockland, Inc., Gilbertsville, Pa.).
# [1] = system: superoxide dismutase (SOD) protein; test: Western immunoblot of SOD protein in rat brain primary cortical cultures; format: cell-based; details: for SOD: 5 hours at 37° C.
# Method: Primary cortical cultures were obtained by growing newborn rat brain cortical cells in Delbecco's modified Eagle medium supplemented with 25 μg/ml of gentamycin and 10% fetal calf serum. The cells were isolated from the E-21 cortex of rat brain, plated at a density of 1×10^5 per ml and grown to confluence within four to five days in an atmosphere containing air and 5% CO2 at 37° C. as described in Cornell-Bell et al., Science, 247: 470-473 (1990) and Cell Calcium, 12: 185-204 (1991). Cultures were grown in 20 ml flasks as a monolayer and then exposed to various concentrations of peptides for studies of the effects of peptides on upregulation of genes for SOD and CAT and on the transmigration of transcription factor AP-1 to cell nuclei. […]
# as §1
# Representative peptide compounds were tested at various doses and compared for their ability to upregulate expression of genes for SOD and/or CAT in rat primary cortical cultures basically as described above. Cultures were incubated with a peptide compound for 5 hours at 37° C. Cytoplasmic protein fractions were prepared as described above. Cytoplasmic proteins were separated by gel electrophoresis and analyzed by Western immunoblots using antisera to SOD and CAT, respectively (Rockland, Inc., Gilbertsville, Pa.). […]
# [2] = system: middle cerebral artery (MCA) permanent occlusion stroke model; test: Permanent MCA 24-hour occlusion stroke model; format: in vivo, Sprague-Dawley rats
# [3] = system: transcription factor AP-1; test: Electrophoretic mobility shift assay (EMSA) for AP-1 activation in primary rat neurons / cortical cultures; format: cell-based
# Method: Nuclear extracts for electrophoretic mobility shift assays (EMSAs) were prepared as described previously (Adams et al., J. Leukocyte Biol., 62: 865-873 (1997)) using 1.0-2.0×10^7 cells per sample. All buffers were freshly supplemented with dithiothreitol (DTT, 0.5 mM), protease inhibitors: PMSF (0.5 mM), chymostatin, peptstatin-A, aprotinin, antipain, leupeptin (each at 1 μg/ml), and phosphatase inhibitors: NaF (10 mM), ZnCl2 (1 mM), sodium orthovanadate (1 mM), and sodium pyrophosphate (5 mM). Aliquots of the final dialyzates were stored at −80° C. and discarded after use.
# AP-1 transcription factor activation was assayed using an electrophoretic mobility shift assay (EMSA), as described by Adams et al., J. Leukoc. Biol., 62:865-873 (1997)). Cultures of primary rat neurons (Cornell-Bell et al., Cell Calcium, 12: 185-204 (1991)) were stimulated for 3 hours with various concentrations (0, 1, 10, 100 ng/ml) of peptide CMX-9236. Nuclear extracts prepared as described above were separated by gel electophoresis on non-denaturing gels and subjected to the EMSA procedure. This EMSA used an AP-1 synthetic duplex probe (Angel, P., 1987, Cell 49:729-739) having the sequence 5′-[…] (SEQ ID NO:33) and its antisense copy (complement strand), which were end-labeled with P^32 using polynucleotide kinase and (γ-P^32)-ATP. For the EMSA reaction, the labeled probe (0.5 pmol) was mixed with 3 μg of nuclear extract protein in a solution containing 10 mM Tris-HCl, pH 7.5, 50 mM NaCl, 1 mM EDTA, 1 mM dithiothreitol, 5% glycerol, 0.02% β-mercaptoethanol, and 1 μg of poly-dI/dC (Pharmacia). Reaction mixtures were incubated at 25° C. for 20 minutes to allow complete complex formation by the duplex with its appropriate AP-1 protein. The mixture was then electrophoresed under non-denaturing conditions through 4% polyacrylamide gels in 0.5×TBE buffer (45 mM Trisma base, 45 mM boric acid, 1 mM EDTA). The gels were dried on 3 mm paper. Bands were visualized by autoradiography at −80° C. with one intensifying screen and quantified by laser densitometry. The upregulation of AP-1 and the activation and upregulation process of AP-1 was compared to control cultures.
# Primary cortical cell cultures were grown to confluence and used in in vitro cultures for determining the effects of various representative peptide compounds on upregulation of AP-1. […] Extracts were prepared from the nuclei isolated from the primary culture homogenates, purified, and analyzed for the presence of specific transcription factors using the electrophoretic mobility shift assay (EMSA) method. The binding of ^32P-labeled duplex DNA probes specific for activator protein-1 (AP-1) or nuclear factor κB (NF-κB) was analyzed and quantified by autoradiography. After a 3-hour incubation of the cultures with 1 ng/ml of the peptide CMX-9236 there was a 15-fold increase of AP-1 relative to […] control cultures. […] Thus, a small peptide compound that is less than 20 amino acids long can simulate the properties of large growth factors such as NGF and BDNF, which exist as dimers of protein chains with molecular weights of 13,259 and 13,500, respectively.
# [4] = system: Superoxide Dismutase (SOD); test: In vivo upregulation of SOD in rat organs (Western immunoblot); design: species or system Sprague-Dawley rats; details: for SOD Activity: 6-hour treatment, 10 mg/kg i.v.
# Method: In vivo experiments were carried out in Sprague-Dawley rats (300-325 g) with solutions of CMX-1152 or CMX-99672. The animals were injected intravenously (iv) via the tail vein with a peptide compound. […] The animals were sacrificed by decapitation at 6, 12, 24, 48, and 72 hours post injection and dissected to isolate brain, liver, heart, kidney, lung organs, which were frozen at −70° C. for subsequent analysis. In addition, 2 ml samples of whole blood were taken from each animal. Half (1 ml) of each sample was centrifuged to remove nuclei and cell membranes to yield plasma. The remaining half was stored frozen as whole blood at −70° C.
# Each tissue was thawed and homogenized in a Down's homogenizer using ten volumes of homogenizer buffer (see, Adams et al., General Cellular Biochemistry, 77: 221-233 (2000); buffer as described in Adams et al., J. Leukoc. Biol., 62: 865-875 (1967)) to obtain a crude cytoplasmic fraction. The tissue homogenates were centrifuged (14,000×g for 5 minutes at 4° C.) to yield the supernatant purified cytoplasmic protein fractions as described in Adams et al. (J. Cell. Biochem., 77: 221-233 (2000)). A 10 μg sample of each protein fraction was then separated by SDS polyacrylamide gel electrophoresis (SDS-PAGE) and analyzed for SOD and CAT content by Western blot assay.
# Control for measurement of unstimulated levels of SOD and CAT were obtained from two vehicle only (i.e., no peptide compound) injected rats that were sacrificed at 24 and 72 hours post injection. Both had essentially the same unstimulated levels of SOD and CAT. Standard quantities of each cytoplasmic fractions (10 μg) were loaded on a lane of a gel for electrophoretic separation and Western immunoblot analysis (Adams et al., J. Cell. Biochem., 77: 221-233 (2000)). The stained gels were photographed and scanned by laser densitometry to quantify intensities in comparison to enzyme levels for control vehicle treated rats.
# [5] = five hours, doses 1, 10, 100 ng/ml
substance,measurement,setting,value
KKQTLQFR,CAT,catalase (CAT) protein; Dose 95 pmol/ml,400 % Control
same,SOD,[1]; Dose 95 pmol/ml,350 % Control
[Ac] Asp Gly Asp Gly Phe Ala (Ac-DGDGFA) [CMX-99655],CAT,catalase (CAT) protein; Dose 8 pmol/ml,520 % Control
same,SOD,[1]; Dose 8 pmol/ml,750 % Control
[Palm] Asp Gly Asp Gly Phe Ala (Palmitoyl-DGDGFA) [CMX-9960],SOD,[1]; Dose 6.7 pmol/ml,527 % Control
KKDGDGDFA [CMX-9902],Percent Neurological Rescue,[2]; Dose 0.05 mg/hr,35 ± 12%
same,Percent Rescue (percent decrease in infarct size vs vehicle controls),[2]; Dose 0.05 mg/hr,29 ± 7%
same,upregulation of SOD proteins (in words),[1]; culture in vitro studies,upregulated SOD proteins
same,activation / upregulation of AP-1 (in words),[3],increased nuclear migration of AP-1
[DHA]-Lys Lys Asp Gly Asp Gly Asp Phe Ala Ile Asp Ala Pro Glu [CMX-9236D],Percent Neurological Rescue,[2]; Dose 0.03 mg/hr,50 ± 18%
same,Percent Rescue (percent decrease in infarct size vs vehicle controls),[2]; Dose 0.03 mg/hr,48 ± 12%
[Gga] Asp Gly Asp Gly Phe Ala (Gga-DGDGFA; not fully specified; printed as [Gga] Asp Gly Asp Gly Phe Ala; reading uncertain) [CMX-99661],SOD,[1]; Dose 6.7 pmol/ml,463 % Control
Asp Gly [CMX-1152],SOD,[1]; Dose 6.7 pmol/ml,2143 % Control
same,SOD Upregulation,[1]; Dose 1 ng/ml,170 % Control
same,SOD Upregulation,[1]; Dose 10 ng/ml,330 % Control
same,SOD Upregulation,[1]; Dose 100 ng/ml,420 % Control
same,SOD Activity,[4]; Brain,520 % of Control
same,SOD Activity,[4]; Heart,550 % of Control
same,SOD Activity,[4]; Kidney,200 % of Control
same,SOD Activity,[4]; Liver,200 % of Control
same,SOD Activity,[4]; Lung,520 % of Control
same,SOD Activity,[4]; Plasma,420 % of Control
same,SOD Activity,[4]; Whole Blood,490 % of Control
same,upregulation in SOD production relative to control,"[4]; brain, heart, lung, and blood",four to five-fold
same,upregulation in SOD production relative to control,[4]; liver and kidney,approximately two-fold
[Ac] Thr Val Ser [CMX-99647],SOD,[1]; Dose 6.7 pmol/ml,2066 % Control
Asp Gly [CMX-99672],upregulation of CAT (in words),catalase (CAT) protein; [5],Comparable data was obtained for CAT
same,increase in SOD,[1]; [5],approximately 30 fold
same,increase in SOD-related protein,[1]; [5],~20 fold
